The record followed here is ChEMBL document CHEMBL1141762, “Morphinane alkaloids with cell protective effects from Sinomenium acutum” (J Nat Prod, 2005).

Calls of active or inactive are those of the source. The calls are words filed in the database; no cut-off is given here.

The experiment concerns PC-12. Briefly: Cell protective activity against rat PC12 cells assessed as protection against H2O2-induced injury. It is filed as functional, cell-based.
Take `COC1=C[C@H]2[C@H]3Cc4ccc(OC)c(O)c4[C@@]2(CCN3)C[C@@H]1O`: the result was Active. Take `COC1=C[C@]23CCN(C)[C@H](Cc4ccc(OC)c(O)c42)C3=CC1=O`: the result was Active. The result for `COC1=C[C@H]2[C@H]3Cc4ccc(OC)c(O)c4[C@@]2(CCN3)CC1=O` reads “Active”.
